In patent US6451854B1, “α-amino acid phenyl ester derivatives” (Akzo Nobel N.V., priority 1998, dated 2002):
Counter-ions that a name gives are not always drawn.

How the values were obtained:
GABAA receptors = assay: inhibition of [35S]-TBPS binding to rat whole brain membranes; details: concentration required to inhibit 50% of [35S]-TBPS binding
Source text: γ-Aminobutyric acid (GABA) is the major inhibitory neurotransmitter within the central nervous system and it is probable that compounds potentiating the effects of GABA at GABAA receptors will induce anaesthesia (S. A. Zimmerman, M. V. Jones and N. L. Harrison, J. Pharmacol. Exp. Therap. 1994, 270, 987-991; N. P. Franks and W. R. Lieb, Nature 1994, 367, 607-614). Indeed there is compelling evidence that many hypnotics exert their biological activity via modulation of GABAA receptors, including steroids, barbiturates, benzodiazepines and propofol (D. L. Tanelian, P. Kosek, I. Mody and M. B. Maclver, Anesthesiology 1993, 78, 757-776).
The in vitro effect of the compounds of the invention at GABAA receptors was assessed through determination of their ability to inhibit [^35S]-TBPS ([^35S]-tert-butyl bicyclophosphorothionate) binding to rat whole brain membranes. The concentration of α-amino acid phenyl ester derivative required to inhibit 50% of binding of [^35S]-TBPS was determined. These in vitro experiments were carried out as described in detail by Anderson et al., J.Med.Chem. 1997, 40, 1668-1681.

mice = assay: hypnotic activity: loss of righting reflex after intravenous administration in mice; type: in vivo; details: dose causing loss of righting reflex for minimum 30 seconds in 50% of mice, intravenous injection over 10 seconds; for ED50: Mus musculus, iv, read-out: HD50 (the source's name)
Procedure: The hypnotic potency of the α-amino acid phenyl ester derivatives of the invention was determined upon their intravenous administration in mice. The dose required to cause a loss of righting reflex for a minimum period of 30 seconds in 50% of treated mice after intravenous injection over 10 seconds was determined. This dose is termed the HD50 (hypnotic dose50) and is expressed in μmol.kg^−1.

## COCCN(CCOC)C(C)C(=O)Oc1c(OC)cc(C)cc1OC (racemic) (as salt: hydrochloride) [Example 7e, (±)-2-[N-bis(2-methoxyethyl)amino]propionic acid, 2,6-dimethoxy-4-methylphenyl ester hydrochloride (1:1) salt]
other
  melting point: 96 to 97 °C

## COCCN(CCOC)C(C)C(=O)Oc1c(OC)cccc1OC (racemic) (as salt: hydrochloride) [Example 7f, (±)-2-[N-bis(2-methoxyethyl)amino]propionic acid, 2,6-dimethoxyphenyl ester hydrochloride (1:1) salt]
other
  melting point: 114 to 116 °C

## CC[C@H](C(=O)Oc1c(OC)cc(C)cc1OC)N(CCOC)CCOC [Example 7a, R-(+)-2-[N-bis(2-methoxyethyl)amino]butyric acid, 2,6-dimethoxy-4-methylphenyl ester hydrochloride (1:1) salt]
GABAA receptors
  IC50: 22 µM
mice
  ED50: 21 µmol/kg

## CCOCCN(CCOCC)[C@@H](CC)C(=O)Oc1c(OC)cccc1OC [Example 7aa, S-(−)-2-[N-bis(2-ethoxyethyl)amino]butyric acid, 2,6-dimethoxyphenyl ester hydrochloride (1:1) salt]
GABAA receptors
  IC50: 11 µM
mice
  ED50: 22 µmol/kg

## COc1cc(C)cc(OC)c1OC(=O)[C@@H](C)N(C)Cc1ccccc1 [Example 7h, R-(+)-2-[N-methylbenzylamino]propionic acid, 2,6-dimethoxy-4-methylphenyl ester hydrochloride (1:1) salt]
GABAA receptors
  IC50: 27 µM
mice
  ED50: 56 µmol/kg

## COc1cccc(OC)c1OC(=O)C(C)N(C)CCc1ccccc1 (centres unmarked) [Example 7m, 2-[N-methylphenethylamino]propionic acid, 2,6-dimethoxyphenyl ester hydrochloride (1:1) salt]
GABAA receptors
  IC50: 59 µM
mice
  ED50: 38 µmol/kg

## COCCN(C)C(C)C(=O)Oc1c(OC)cccc1OC.Cl (centres unmarked) [Example 7p, 2-[N-methyl-(2-methoxy)ethylamino]propionic acid, 2,6-dimethoxyphenyl ester hydrochloride (1:1) salt]
GABAA receptors
  IC50: ~100 µM
mice
  HD50: 72 µmol/kg

## CC[C@@H](C(=O)Oc1c(OC)cc(C)cc1OC)N(CCOC)CCOC [Example 7v, S-(−)-2-[N-bis(2-methoxyethyl)amino]butyric acid, 2,6-dimethoxy-4-methylphenyl ester hydrochloride (1:1) salt]
GABAA receptors
  IC50: 14 µM
mice
  ED50: 35 µmol/kg

## COCCN(CCOC)[C@H](C)C(=O)Oc1c(OC)cc(C)cc1OC [Example 7y, R-(+)-2-[N-bis(2-methoxyethyl)amino]propionic acid, 2,6-dimethoxy-4-methylphenyl ester hydrochloride (1:1) salt]
GABAA receptors
  IC50: < 100 µM
mice
  ED50: 18 µmol/kg

## CCOCCN(CCOCC)[C@H](CC)C(=O)Oc1c(OC)cccc1OC [Example 7z, R-(+)-2-[N-bis(2-ethoxyethyl)amino]butyric acid, 2,6-dimethoxyphenyl ester hydrochloride (1:1) salt]
GABAA receptors
  IC50: 18 µM
mice
  ED50: 19 µmol/kg

## COc1cccc(OC)c1OC(=O)C(C)N1CCOCC1 (centres unmarked) [Reference, 2,6-dimethoxyphenyl 2-morpholinopropionate, reference compound]
GABAA receptors
  IC50: 766 µM
mice
  ED50: 139 µmol/kg
